Assay results: patent US10184115B2, “Mutated cellobiose dehydrogenase with increased substrate specificity” (DIRECTSENS GMBH, priority 2012, dated 2019)

Biological target: T1, Myriococcum thermophilum cellobiose dehydrogenase (CDH, SEQ ID NO: 1) variant R622N (Thermothelomyces myriococcoides, UniProt A9XK88, R622N)
T1 sequence (A9XK88 22-828 R622N): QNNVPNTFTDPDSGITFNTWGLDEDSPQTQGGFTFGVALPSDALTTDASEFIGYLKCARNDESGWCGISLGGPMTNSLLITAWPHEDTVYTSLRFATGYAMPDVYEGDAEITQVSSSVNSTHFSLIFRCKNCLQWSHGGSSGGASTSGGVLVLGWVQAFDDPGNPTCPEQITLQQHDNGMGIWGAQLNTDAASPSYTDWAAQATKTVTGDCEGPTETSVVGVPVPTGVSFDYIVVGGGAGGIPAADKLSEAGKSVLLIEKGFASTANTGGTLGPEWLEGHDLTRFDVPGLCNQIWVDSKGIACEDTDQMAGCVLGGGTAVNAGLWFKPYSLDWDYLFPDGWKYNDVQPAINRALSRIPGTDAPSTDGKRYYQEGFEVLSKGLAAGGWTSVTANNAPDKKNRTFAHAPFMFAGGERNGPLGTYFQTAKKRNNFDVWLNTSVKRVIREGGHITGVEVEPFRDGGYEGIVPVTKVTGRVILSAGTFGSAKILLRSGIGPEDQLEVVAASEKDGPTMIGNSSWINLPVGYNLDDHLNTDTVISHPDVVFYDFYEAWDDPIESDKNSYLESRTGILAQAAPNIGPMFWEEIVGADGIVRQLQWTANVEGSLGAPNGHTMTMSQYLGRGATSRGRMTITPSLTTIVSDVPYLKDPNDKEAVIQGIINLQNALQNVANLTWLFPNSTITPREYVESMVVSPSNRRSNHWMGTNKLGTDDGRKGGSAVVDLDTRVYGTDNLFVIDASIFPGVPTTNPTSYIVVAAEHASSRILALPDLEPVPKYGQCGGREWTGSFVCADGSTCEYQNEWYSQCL
Assay: Steady-state kinetics, DCIP assay: M. thermophilum CDH R622N
Format: biochemical
Settings: apparent, pH 4.5, 30° C.
Procedure: Enzyme activity was assayed at 30° C. using either the DCIP (Karapetyan et al., 2005 Journal of Biotechnology 121: 34-48) or cytochrome c (Canevascini et al., 1991, European Journal of Biochemistry 198: 43-52) as electron acceptor. […] Stock solutions of carbohydrates used for kinetic measurements were prepared in the respective buffer and allowed to stand overnight for mutarotation, while stock solutions of electron acceptors were prepared in water and immediately used. The reaction stoichiometry is 1 for the two-electron acceptor DCIP (1 mole of DCIP reduced per mole of carbohydrate oxidized), but 2 for the one-electron acceptor cytochrome c. Kinetic constants were calculated by fitting the observed data to the Henri-Michaelis-Menten equation or to the adapted model for substrate inhibition using nonlinear least-squares regression and the program SigmaPlot (Systat Software, San Jose, Calif., USA). […]
Recombinant wild-type CDH as well as variants were produced in 1 L baffled flasks. […] Increase in activity was monitored using the DCIP and the cytochrome c enzyme assays. […]
The sample was loaded on a 20 mL PHE Sepharose FF column (HR26/20) equilibrated with 50 mM Na-acetate buffer pH 5.5 containing 20% ammonium sulfate. […] Fractions were tested for CDH activity and pooled according to the highest Reinheitszahl (RZ, calculated from the absorbance ratio 420 nm/280 nm). […]

**Q.** How did the kcat/KM turn out when `OC[C@H]1O[C@H](O[C@H]2[C@H](O)[C@@H](O)C(O)O[C@@H]2CO)[C@H](O)[C@@H](O)[C@@H]1O` (stereo partly shown) [Maltose, maltose] was run?
**A.** 5.2 M⁻¹ s⁻¹
